Series [1] concerns E. coli ATCC 25922. Description: Live/Dead bacterial staining assay (AO/EB). The series is classed as cell-based. The note with it: 0.5 h and 3 h. The method, then: Live/Dead bacterial staining assay. Exponentially growing bacteria (E. coli ATCC 25922) were collected by centrifugation at 8000 rpm for 5 min, washed with saline and diluted to OD 600 value of 0.5. The bacterial suspensions were incubated with different treatments at 37° C. for 0.5 h and 3 h, and then washed with saline and stained by acridine orange (10 μg/mL) and ethidium bromide (EB, […]) solution for 15 min. Afterward, the bacteria were collected via centrifugation, washed with saline for 2 times, resuspended in 70% glycerol and spread on glass slides. The live/dead bacteria were observed by a confocal laser scanning microscope (CLSM).

Series [2] has as its system broad spectrum of microbes. Kind of series: MIC, broth microdilution, across the strains tested. Type of series: cell-based. The note with it: E. coli, MRSA, P. aeruginosa (FIGS. 3G-I). The method, then:
Bacterial strains. S. aureus Newman was kindly provided by Prof Douglas Weibel; E. coli ATCC25922, S. aureus ATCC 33591 and P. aeruginosa ATCC 27853 were kindly donated by Prof. David Andes. E. coli DH5a was purchased from Thermo Fisher. The bacteria above were grown in Mueller Hinton Broth (MHB) media (Criterion, Santa Maria, Calif., USA). M. smegmatis mc^2155 strain was kindly donated by Prof. Adel M. Talaat, and was grown in Middlebrook 7H9 broth (HiMedia, West Chester, Pa., USA).
Minimal inhibitory concentration (MIC) measurements. The MIC of the different treatments on various bacteria strains was determined using the broth microdilution method. Briefly, 100 μL of the respective broth media containing serial twofold dilutions of each compound was placed into a 96-well tissue culture plate. Each bacterial strain was taken from an exponentially growing culture and diluted to 5×10^6 CFU/mL. 10 μL of such microbial suspension was inoculated in each well of the plate, resulting in a final bacteria concentration of approximately 5×10^5 CFU/mL. The bacteria were cultured at 37° C. for 24 h and their growth were observed by reading the optical density (OD) at 600 nm. The MIC was determined as the treatment concentration at which no microbial growth was observed. […]

Series [3] is described as follows: Streptomycin release kinetics (dialysis, HPLC). The series is classed as physicochemical. The method, then:
Streptomycin release kinetics. […] The bags were put into the PBS buffers with the corresponding pH, and incubated in a 37° C. shaker. At different time intervals, 100 μL sample outside the dialysis bag was collected for HPLC analysis.

A further series relates to MRSA biofilm. Description: Biofilm inhibition assay (crystal violet). Type of series: cell-based, S. aureus. The method, then:
(§1) Biofilm inhibition assays. Exponentially growing bacteria were inoculated into 96 well plates (1×10^4 cell/well) containing MHB broth with 2% (v/w) glucose, incubated under stationary conditions at 37° C. for one day. After biofilm formation, the media was discarded and the plates were washed with PBS to remove the planktonic bacteria. Fresh NMB broth containing serially diluted free streptomycin or PDC were added to the plates and incubated at 37° C. for another 24 h. The media in each well was then removed, and the plates were washed carefully with PBS for 1 time. The biofilm in each well was fixed with 95% ethanol for 15 min and stained with 0.1% crystal violet for 15 min. After washing with Milli-Q water for three times, 33% v/v acetic acid (100 μL/well) was added to solubilize the crystal violet staining. OD 560 in each well was read to determine the biofilm formation. The biofilm formed as described above was also stained with acridine orange and Cy5 labeled PDC, and monitored by CLSM to observe the PDC penetration.

A further series concerns P. aeruginosa biofilm. Kind of series: Biofilm inhibition assay (crystal violet). The series is classed as cell-based. The note with it: 256 μg/mL streptomycin. The method, then: as §1
A further series concerns E. coli biofilm. Kind of series: Biofilm inhibition assay (crystal violet). The series is classed as cell-based. The note with it: streptomycin concentration 16 μg/mL. The method, then:
as §1

The subject of series [4] is E. coli ATCC 25922. Description: Mouse thigh infection model. The series is classed as in vivo, ICR mice. The note with it: single i.v. injection 1 h after infection, equivalent of 5 mg streptomycin/kg, thighs at 24 h. The method, then: Mouse thigh infection model. ICR mice (female, 22-24 g, Charles River) were intramuscularly inoculated with E. coli ATCC 25922 (2×10^8 CFU/mL in saline, 0.05 mL bacteria suspension per thigh) on their both thighs and randomly divided into 4 groups (n=3). The mice were treated with PBS, free streptomycin (5 mg/kg), […] through i.v. injection 1 h after the infection. 24 h after the inoculation, animals were euthanized by CO2 asphyxiation and thigh muscles were collected and homogenized in 5 mL cold PBS with glass homogenizer. The homogenates in the amount of 0.1 mL were used for serial tenfold dilutions and spread onto nutrient agar plate for CFU determination.

Data on one substance can be found in patent US11911406B2, “PH-responsive polymer-drug conjugates for enhanced antibacterial efficacy” (priority 2020, dated 2024).

As to “Hex-Cys-Cys-DET-strep-DMA [Neutralized PDC]”, the “bactericidal effect / EB staining, in words” value with E. coli ATCC 25922 [1] was “much delayed and pH-dependent bactericidal effect”. In series [2], the “effect of pH (6.0 vs 7.4) on MIC, in words” value was “performed significantly better at pH 6.0 than at 7.4”. Also, the streptomycin release entry in series [3] (pH 6.0, within 48 h) was “about 70%”; in series [3] (pH 7.4, at 48 h), “about 20%”. Also, the biofilm removed entry with MRSA biofilm (equivalent of 32 μg/mL streptomycin, acidic conditions) is listed as “More than 90%”. Moreover, the biofilm eliminated in the series with MRSA biofilm (streptomycin concentration 16 μg/mL) and with E. coli biofilm was 75% in each case. In the series on P. aeruginosa biofilm, the “biofilm reduced / removed” value was found to be 96%. Besides, in the series with E. coli ATCC 25922 [4], the “reductions in CFU” value is reported as “more than 4 orders”.
